Measured values from patent US6809091B1, “Substances capable of inducing apoptosis” (Takara Bio Inc., priority 1998, dated 2004).

Assays:
HL-60 cells [1] = test: Trypan Blue staining, survival rate; type: cell-based; details: Homo sapiens, HL-60, 24 hours, concentration where survival rate becomes 50%, read-out: Survival Rate50
Protocol: (3) The cells which were incubated for 24 hours by the same manner as in Example 9-(2) were stained with 0.4% Trypan Blue and observed under an optical microscope, numbers of viable cells which were not stained and of dead cells which were stained in blue were measured, concentration (survival rate50) of each of the samples where survival rate becomes 50% was determined and the result is given in Table 1.

human FGF-β = test: cytokine production in DSEK cells, ELISA; type: cell-based; details: DSEK cell incubation, supernatant every 24 hours
Protocol: Now, in the DSEK cell incubation, 150 μl/well of the supernatant liquid of the medium were recovered every 24 hours and influence of 4-hydroxy-2-cyclopenten-1-one or 4,5-dihydroxy-2-pentenal on the production of cytokines (human TGF-β, human FGF-β, human IL-1α and human IL-10) was measured using an ELISA-kit specific to each of the cytokine (the kit manufactured by INTERGEN or human FGF-β and human IL-10; and the kit manufactured by Promega for human IL-1α and human TGF-β).

HL-60 cells [2] = test: analysis of fragmentation of DNA; type: cell-based, human
Protocol: (2) HL-60 cells which were incubated on an RPMI 1640 medium containing 10% of fetal bovine serum processed at 56° C. for 30 minutes were suspended in an RPMI 1640 medium to make 2.5×10^5 cells/5 ml.
To 5 ml the suspension were added 10 μl of 12.5 mM, 25 mM, 50 mM or 100 mM of a 70% ethanolic solution of 4,5-dihydroxy-2-pentenal, 0.05 mM, 0.5 mM, 5 mM or 50 mM of a 70% ethanolic solution of 4-hydroxy-2-cyclopenten-1-one, 5 mM, 10 mM or 20 mM of a 70% ethanolic solution of 4-(9-adeninyl)-2-cyclopenten-1-one prepared in Example 4-(4), 2.5 mM, 5 mM, 15 mM or 25 mM of a 70% ethanolic solution of 4-(9-guaninyl)-2-cyclopenten-1-one prepared in Example 4-(5) 75 mM, 150 mM or 300 mM of a 70% ethanolic solution of 1,5-epoxy-1-hydroxy-3-penten-2-one prepared in Example 5-(2) or 5 mM, 25 mM or 50 mM of a 70% ethanolic solution of 2-(trans-3,4-dihydroxy-1-butenyl)-4-(trans-2-formylvinyl)-1,3-dioxolane prepared in Example 6-(2) followed by incubating at 37° C. in the presence of 5% of carbon dioxide gas for 24 hours and 48 hours and the resulting cells were subjected to a measurement of apoptosis cells using FACScan by a method mentioned in pages 129-130 of “Experimental Protocol Series—Apoptosis Experiment Protocol” which was an extra issue of “Saibo Kogaku (Cell Technology)” (published by Shujunsha in 1994) and also to a measurement of analysis of fragmentation of DNA by a method mentioned in page 61-63 of “Biomanual UP Series—New Experimental Methods for Apoptosis” (published by Yodosha in 1995).

[3] = test system: heat shock protein of 70 kDa in HL-60; test: induction of heat shock protein of 70 kDa, SDS-PAGE and blotting; type: cell-based, human; parameters: key: “−” means no induction; “±” means a little induction; “+” shows the intensity of induction and the more the “+”, the more the induction; ++: “+” shows the intensity of induction and the more the “+”, the more the induction; +++: “+” shows the intensity of induction and the more the “+”, the more the induction; details: six hours
[4] = test system: hIGF-1 production in Hs68 cells; test: induction of hIGF-1 production, ELISA; type: cell-based, human; details: for time at which the inducing activity of the hIGF production became maximum: 100 μM or more
Protocol: Hs 68 cells (ATCC CRL-1635) which were human […] were incubated on a D-MEM medium (manufactured by Gibco BRL) containing 10% of fetal bovine serum (FBS manufactured by BioWhittaker) at 37° C. in the presence of 5% of CO2 until the cells were saturated in the culture medium, a trypsin-EDTA solution (manufactured by BioWhittaker) was suspended in the above medium to make 3×10^5 cells/ml and each 200 μl of the suspension were placed in each well of a 96-well microtiter plate. After five days from the incubation, the medium was discarded at the stage where the cells were almost saturated in the culture medium and a medium containing 5, 10, 20, 40, 100 or 200 μM of 4,5-dihydroxy-2-pentenal or 4-hydroxy-2-cyclopenten-1-one was added thereto. A time course of 96 hours was adopted and, every 24 hours, the supernatant liquid of the incubated medium was recovered and the influence of 4,5-dihydroxy-2-pentenal and 4-hydroxy-2-cyclopenten-1-one on the induction of hIGF-1 production in Hs68 cells was measured using an ELISA-kit for hIGF-1 (manufactured by Diagnostic System Labo).

U937 cells = test: cell growth of U937 cells, Premix WST-1; type: cell-based, human
Protocol: (1) U937 cells (ATCC CRL-1593) which were […] established from pleural effusion of patients suffering from […] were suspended in an RPMI 1640 medium containing 10% of FBS to make its concentration 5×10^5 cells/ml and each 100 μl of the suspension was placed in each well of a 96-well microtiter plate. […] The mixture was incubated at 37° C. in the presence of carbon dioxide gas and, after 24, 48 and 72 hours, 10 μl of Premix WST-1 (MK 400; manufactured by Takara Shuzo) were added. The mixture was made to react at 37° C. for three hours and the value (A450-650) obtained by subtracting the absorbance at 650 nm (A650) from that at 450 nm (A450) was defined as a degree of cell growth.

Structure (SMILES) | IC50 (HL-60 cells [1]) [µM] | production of human FGF-β (human FGF-β) | Inducing Activity of the hIGF-1 Production ([4]; 40 μM, 24 hours) [ng/mL] | Inducing Activity of the hIGF-1 Production ([4]; 40 μM, 48 hours) [ng/mL] | Inducing Activity of the hIGF-1 Production ([4]; 40 μM, 72 hours) [ng/mL] | Inducing Activity of the hIGF-1 Production ([4]; 40 μM, 96 hours) [ng/mL] | time at which the inducing activity of the hIGF production became maximum [4] [h] | Inducing Activity of the hIGF-1 Production ([4]; 100 μM, 24 hours) [ng/mL] | Inducing Activity of the hIGF-1 Production ([4]; 100 μM, 48 hours) [ng/mL] | Inducing Activity of the hIGF-1 Production ([4]; 100 μM, 72 hours) [ng/mL] | Inducing Activity of the hIGF-1 Production ([4]; 100 μM, 96 hours) [ng/mL] | Inducing Activity of the hIGF-1 Production ([4]; 200 μM, 24 hours) [ng/mL] | Inducing Activity of the hIGF-1 Production ([4]; 200 μM, 48 hours) [ng/mL] | Inducing Activity of the hIGF-1 Production ([4]; 200 μM, 72 hours) [ng/mL] | Inducing Activity of the hIGF-1 Production ([4]; 200 μM, 96 hours) [ng/mL] | Degree of Cell Growth (U937 cells; 50 μM, 24 hours) [A450-650] | Degree of Cell Growth (U937 cells; 50 μM, 48 hours) [A450-650] | Degree of Cell Growth (U937 cells; 50 μM, 72 hours) [A450-650] | Degree of Cell Growth (U937 cells; 75 μM, 24 hours) [A450-650] | Degree of Cell Growth (U937 cells; 75 μM, 48 hours) [A450-650] | also measured
O=C1C=CC(O)C1 (stereo not shown) [4-hydroxy-2-cyclopenten-1-one] | 25.5 | inhibited | 0 | 0 | 0 | 0 | 24 | 39.9 | 10.0 | 9.6 | 4.4 | 37.9 | 10.4 | 9.9 | 4.2 | 0.501 | 0.930 | 0.875 | 0.557 | 0.968 | fragmentation of DNA (HL-60 cells [2]; HL-60, 10 μM final concentration): confirmed; intensity of induction of heat shock protein of 70 kDa ([3]; HL-60, 2.5 μM): −; intensity of induction of heat shock protein of 70 kDa ([3]; HL-60, 10 μM): +; hIGF-1 inducing activity [4]: stronger than that of 4,5-dihydroxy-2-pentenal; Degree of Cell Growth (U937 cells; 75 μM, 72 hours): 0.821 A450-650; Degree of Cell Growth (U937 cells; 100 μM, 24 hours): 0.591 A450-650; Degree of Cell Growth (U937 cells; 100 μM, 48 hours): 1.054 A450-650; Degree of Cell Growth (U937 cells; 100 μM, 72 hours): 0.532 A450-650; Degree of Cell Growth (U937 cells; 150 μM, 24 hours): 0.524 A450-650; Degree of Cell Growth (U937 cells; 150 μM, 48 hours): 1.126 A450-650; Degree of Cell Growth (U937 cells; 150 μM, 72 hours): 0.478 A450-650; Degree of Cell Growth (U937 cells; 200 μM, 24 hours): 0.353 A450-650; Degree of Cell Growth (U937 cells; 200 μM, 48 hours): 0.643 A450-650; Degree of Cell Growth (U937 cells; 200 μM, 72 hours): 0.338 A450-650
O=CC=CC(O)CO (single isomer, unassigned) [4,5-dihydroxy-2-pentenal, trans-4,5-dihydroxy-2-pentenal] | 124 |  | 0 | 0 | 0 | 0 | 24 | 15.3 | 10.0 | 5.2 | 4.6 | 11.3 | 11.1 | 9.9 | 4.5 | 0.821 | 1.471 | 1.245 | 0.606 | 0.879 | fragmentation of DNA (HL-60 cells [2]; HL-60, 50 μM final concentration): confirmed; fragmentation of DNA (HL-60 cells [2]; HL-60, 100 μM final concentration): confirmed; fragmentation of DNA (HL-60 cells [2]; HL-60, 200 μM final concentration): confirmed; intensity of induction of heat shock protein of 70 kDa ([3]; HL-60, 1.25 μM): −; Degree of Cell Growth (U937 cells; 75 μM, 72 hours): 0.862 A450-650; Degree of Cell Growth (U937 cells; 100 μM, 24 hours): 0.560 A450-650; Degree of Cell Growth (U937 cells; 100 μM, 48 hours): 0.948 A450-650; Degree of Cell Growth (U937 cells; 100 μM, 72 hours): 0.597 A450-650; Degree of Cell Growth (U937 cells; 150 μM, 24 hours): 0.505 A450-650; Degree of Cell Growth (U937 cells; 150 μM, 48 hours): 0.823 A450-650; Degree of Cell Growth (U937 cells; 150 μM, 72 hours): 0.465 A450-650; Degree of Cell Growth (U937 cells; 200 μM, 24 hours): 0.370 A450-650; Degree of Cell Growth (U937 cells; 200 μM, 48 hours): 0.644 A450-650; Degree of Cell Growth (U937 cells; 200 μM, 72 hours): 0.753 A450-650
O=C/C=C/C1COC(/C=C/C(O)CO)O1 (stereo not drawn) [2-(trans-3,4-dihydroxy-1-butenyl)-4-(trans-2-formylvinyl)-1,3-dioxolane] | 74.4 |  |  |  |  |  |  |  |  |  |  |  |  |  |  |  |  |  |  |  | 
Nc1nc2c(ncn2C2C=CC(=O)C2)c(=O)[nH]1 (stereo not shown) [4-(9-guaninyl)-2-cyclopenten-1-one] | 67.9 | inhibited |  |  |  |  |  |  |  |  |  |  |  |  |  |  |  |  |  |  | 
